One assay has as its target Pyk2 (Homo sapiens, UniProt Q14289). Nature of the assay: in vitro kinase assay. It is filed as biochemical. The settings on record: read-out: Pyk2 inhibition 1 μM ^a.
For assay [1], the target named is FAK (focal adhesion kinase) (Homo sapiens, UniProt Q05397). Briefly: in vitro kinase assay, Kinase-Glo luminescence. It is filed as biochemical. The settings on record: read-out: FAK inhibition 1 μM ^a. For orientation: Kinase-Glo reads ATP consumption through a luciferase reaction.
Chain of FAK (focal adhesion kinase) (Q05397 2-1052): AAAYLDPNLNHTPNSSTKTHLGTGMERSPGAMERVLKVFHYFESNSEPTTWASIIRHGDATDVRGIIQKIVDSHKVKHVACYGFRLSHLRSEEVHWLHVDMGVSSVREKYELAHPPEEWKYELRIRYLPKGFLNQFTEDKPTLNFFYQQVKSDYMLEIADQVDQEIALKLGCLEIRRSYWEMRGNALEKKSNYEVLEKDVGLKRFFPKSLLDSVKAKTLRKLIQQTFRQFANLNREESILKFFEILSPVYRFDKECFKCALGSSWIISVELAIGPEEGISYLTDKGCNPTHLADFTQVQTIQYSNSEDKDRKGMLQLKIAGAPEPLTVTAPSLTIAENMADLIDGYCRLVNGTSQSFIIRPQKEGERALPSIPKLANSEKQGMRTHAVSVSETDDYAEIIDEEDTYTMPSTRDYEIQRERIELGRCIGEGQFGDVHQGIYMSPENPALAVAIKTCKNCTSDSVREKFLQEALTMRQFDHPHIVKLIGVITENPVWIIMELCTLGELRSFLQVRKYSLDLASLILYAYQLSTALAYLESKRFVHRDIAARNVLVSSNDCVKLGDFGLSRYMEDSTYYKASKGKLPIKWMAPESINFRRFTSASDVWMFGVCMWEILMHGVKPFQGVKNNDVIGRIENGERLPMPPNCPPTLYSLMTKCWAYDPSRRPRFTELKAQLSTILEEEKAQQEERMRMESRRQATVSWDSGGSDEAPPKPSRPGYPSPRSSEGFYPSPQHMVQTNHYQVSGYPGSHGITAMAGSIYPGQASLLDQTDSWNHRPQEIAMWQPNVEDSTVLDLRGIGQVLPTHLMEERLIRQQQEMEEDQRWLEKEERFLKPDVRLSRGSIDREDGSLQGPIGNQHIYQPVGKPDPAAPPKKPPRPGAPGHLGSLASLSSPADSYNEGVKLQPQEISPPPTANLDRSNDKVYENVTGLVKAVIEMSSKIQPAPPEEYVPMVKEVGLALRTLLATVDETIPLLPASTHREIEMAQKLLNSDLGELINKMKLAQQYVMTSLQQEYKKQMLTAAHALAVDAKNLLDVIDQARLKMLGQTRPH

Chain of Pyk2 (Q14289 whole entry): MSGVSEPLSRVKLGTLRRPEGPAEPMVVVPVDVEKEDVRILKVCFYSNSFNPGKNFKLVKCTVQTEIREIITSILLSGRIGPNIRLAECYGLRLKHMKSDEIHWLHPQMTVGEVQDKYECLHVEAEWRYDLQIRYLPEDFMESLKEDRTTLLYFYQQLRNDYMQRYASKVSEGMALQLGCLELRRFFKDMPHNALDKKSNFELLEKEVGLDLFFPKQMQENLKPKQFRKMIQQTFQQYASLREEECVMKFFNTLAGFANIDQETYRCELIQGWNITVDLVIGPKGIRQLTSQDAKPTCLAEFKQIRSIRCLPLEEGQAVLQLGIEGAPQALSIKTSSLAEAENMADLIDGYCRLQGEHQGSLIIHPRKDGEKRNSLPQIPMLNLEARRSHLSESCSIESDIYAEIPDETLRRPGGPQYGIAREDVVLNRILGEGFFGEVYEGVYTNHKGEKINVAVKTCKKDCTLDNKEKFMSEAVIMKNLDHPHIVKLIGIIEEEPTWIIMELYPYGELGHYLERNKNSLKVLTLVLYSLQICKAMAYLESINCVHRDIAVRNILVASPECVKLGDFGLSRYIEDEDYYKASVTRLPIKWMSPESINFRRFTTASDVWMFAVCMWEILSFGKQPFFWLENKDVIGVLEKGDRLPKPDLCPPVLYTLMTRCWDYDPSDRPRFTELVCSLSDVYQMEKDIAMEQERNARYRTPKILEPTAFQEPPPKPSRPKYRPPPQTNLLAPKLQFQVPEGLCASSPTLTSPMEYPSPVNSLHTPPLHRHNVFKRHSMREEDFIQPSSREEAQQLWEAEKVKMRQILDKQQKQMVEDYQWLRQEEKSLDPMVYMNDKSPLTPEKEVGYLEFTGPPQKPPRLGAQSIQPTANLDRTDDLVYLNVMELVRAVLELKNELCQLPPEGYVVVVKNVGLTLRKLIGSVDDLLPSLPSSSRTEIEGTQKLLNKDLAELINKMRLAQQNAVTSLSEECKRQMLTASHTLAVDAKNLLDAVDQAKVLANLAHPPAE

What is called inhibition is the share of the control response that was lost under treatment. With `c1nc2nc(Nc3ccc(N4CCOCC4)cc3)nc(NC3CCCCC3)c2[nH]1` [reversine], the values for the inhibition at 1 µM (at Pyk2; in assay [1]) were 82% and 70%, respectively.

The values are drawn from article PMC3844920 (British Journal of Cancer, 2013).
